Results: PubChem BioAssay (NCI)
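Tested at 5 concentrations; 48 h exposure; 96-well plates; endpoints linearly interpolated, else capped at highest concentration. GI50 is the concentration that inhibits growth by half. TGI: concentration producing complete growth inhibition.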

Experiments:
Assay in all cases: NCI tumour cell line growth inhibition, 48 h
[1] = test system: 786-0 renal
[2] = test system: A498 renal
[3] = test system: A549 NSCLC
[4] = test system: ACHN renal
[5] = test system: BT-549 breast
[6] = test system: CAKI-1 renal
[7] = test system: CCRF-CEM leukemia
[8] = test system: COLO 205 colon
[9] = test system: DU-145 prostate
[10] = test system: EKVX NSCLC
[11] = test system: HCC-2998 colon
[12] = test system: HCT-116 colon
[13] = test system: HCT-15 colon
[14] = test system: HL-60(TB) leukemia
[15] = test system: HOP-62 NSCLC
[16] = test system: HOP-92 NSCLC
[17] = test system: HS 578T breast
[18] = test system: HT29 colon
[19] = test system: IGROV1 ovarian
[20] = test system: K-562 leukemia
[21] = test system: KM12 colon
[22] = test system: LOX IMVI melanoma
[23] = test system: M14 melanoma
[24] = test system: MALME-3M melanoma
[25] = test system: MCF7 breast
[26] = test system: MDA-MB-231 breast
[27] = test system: MDA-MB-435
[28] = test system: MDA-MB-468 breast
[29] = test system: MOLT-4 leukemia
[30] = test system: NCI-H226 lung
[31] = test system: NCI-H23 lung
[32] = test system: NCI-H460 lung
[33] = test system: NCI-H522 lung
[34] = test system: OVCAR-3 ovarian
[35] = test system: OVCAR-4 ovarian
[36] = test system: OVCAR-5 ovarian
[37] = test system: OVCAR-8 ovarian
[38] = test system: PC-3 prostate
[39] = test system: RPMI-8226 leukemia
[40] = test system: RXF 393 renal
[41] = test system: SF-268 CNS
[42] = test system: SF-295 CNS
[43] = test system: SF-539 CNS
[44] = test system: SK-MEL-2 melanoma
[45] = test system: SK-MEL-28 melanoma
[46] = test system: SK-MEL-5 melanoma
[47] = test system: SK-OV-3 ovarian
[48] = test system: SN12C renal
[49] = test system: SNB-19 CNS
[50] = test system: SNB-75 CNS
[51] = test system: SR leukemia
[52] = test system: SW-620 colon
[53] = test system: T-47D breast
[54] = test system: TK-10 renal
[55] = test system: U251 CNS
[56] = test system: UACC-257 melanoma
[57] = test system: UACC-62 melanoma
[58] = test system: UO-31 renal
[59] = test system: NCI/ADR-RES ovarian

COc1cc2cc(C(=O)N3C[C@@H](CCl)c4c3cc(OC(=O)N(CCC(=O)N3CCN(C)CC3)C3CCCCC3)c3ccccc43)[nH]c2c(OC)c1OC
GI50 [1]: 1730 nM
TGI [1]: 10100 nM
GI50 [2]: 2770 nM
TGI [2]: 5270 nM
GI50 [3]: 1990 nM
TGI [3]: > 100000 nM
GI50 [4]: 493 nM
TGI [4]: 10700 nM
GI50 [5]: 1590 nM
TGI [5]: 4220 nM
GI50 [6]: 1490 nM
TGI [6]: 7650 nM
GI50 [7]: 993 nM
TGI [7]: 12100 nM
GI50 [8]: 1370 nM
TGI [8]: 2800 nM
GI50 [9]: 456 nM
TGI [9]: 4630 nM
GI50 [10]: 1950 nM
TGI [10]: 5890 nM
GI50 [11]: 1520 nM
TGI [11]: 3480 nM
GI50 [12]: 1500 nM
TGI [12]: 9940 nM
GI50 [13]: 1730 nM
TGI [13]: 6710 nM
GI50 [14]: 751 nM
TGI [14]: 3730 nM
GI50 [15]: 594 nM
TGI [15]: 9110 nM
GI50 [16]: 2500 nM
TGI [16]: 9460 nM
GI50 [17]: 2420 nM
TGI [17]: 7110 nM
GI50 [18]: 1520 nM
TGI [18]: 4240 nM
GI50 [19]: 2310 nM
TGI [19]: 7760 nM
GI50 [20]: 677 nM
TGI [20]: 20300 nM
GI50 [21]: 2070 nM
TGI [21]: 7250 nM
GI50 [22]: 1100 nM
TGI [22]: 2760 nM
GI50 [23]: 1520 nM
TGI [23]: 4240 nM
GI50 [24]: 1570 nM
TGI [24]: 3050 nM
GI50 [25]: 318 nM
TGI [25]: 2630 nM
GI50 [26]: 3070 nM
TGI [26]: 8630 nM
GI50 [27]: 1780 nM
TGI [27]: 3650 nM
GI50 [28]: 688 nM
TGI [28]: 2290 nM
GI50 [29]: 594 nM
TGI [29]: 10100 nM
GI50 [30]: 1440 nM
TGI [30]: 4210 nM
GI50 [31]: 471 nM
TGI [31]: 1930 nM
GI50 [32]: 512 nM
TGI [32]: 10700 nM
GI50 [33]: 1700 nM
TGI [33]: 4530 nM
GI50 [34]: 2100 nM
TGI [34]: 4670 nM
GI50 [35]: 2340 nM
TGI [35]: 6350 nM
GI50 [36]: 5110 nM
TGI [36]: 27900 nM
GI50 [37]: 1660 nM
TGI [37]: 10100 nM
GI50 [38]: 3140 nM
TGI [38]: > 100000 nM
GI50 [39]: 1470 nM
TGI [39]: 5080 nM
GI50 [40]: 1060 nM
TGI [40]: 2460 nM
GI50 [41]: 1540 nM
TGI [41]: 7450 nM
GI50 [42]: 1550 nM
TGI [42]: 6790 nM
GI50 [43]: 1310 nM
TGI [43]: 3870 nM
GI50 [44]: 1980 nM
TGI [44]: 3500 nM
GI50 [45]: 3580 nM
TGI [45]: 8960 nM
GI50 [46]: 1640 nM
TGI [46]: 3220 nM
GI50 [47]: 2150 nM
TGI [47]: 9350 nM
GI50 [48]: 1200 nM
TGI [48]: 10200 nM
GI50 [49]: 2220 nM
TGI [49]: 20000 nM
GI50 [50]: 1290 nM
TGI [50]: 3700 nM
GI50 [51]: 276 nM
TGI [51]: 1930 nM
GI50 [52]: 1890 nM
TGI [52]: 12600 nM
GI50 [53]: 1900 nM
TGI [53]: 6630 nM
GI50 [54]: 2850 nM
TGI [54]: 8530 nM
GI50 [55]: 1510 nM
TGI [55]: 4460 nM
GI50 [56]: 1990 nM
TGI [56]: 4630 nM
GI50 [57]: 1530 nM
TGI [57]: 3280 nM
GI50 [58]: 1880 nM
TGI [58]: 6340 nM

C[C@H]1[C@H](OC(=O)CCC(=O)N(CCCc2cn(-c3ccc(CN4CCOCC4)cc3)nn2)CCNc2ccnc3cc(Cl)ccc23)O[C@@H]2OC3(C)CC[C@H]4[C@H](C)CC[C@@H]1[C@@]24OO3
GI50 [1]: 1530 nM
TGI [1]: 3540 nM
GI50 [2]: > 11800 nM
TGI [2]: > 11800 nM
GI50 [3]: 3250 nM
TGI [3]: > 11800 nM
GI50 [4]: 2740 nM
TGI [4]: > 11800 nM
GI50 [5]: 899 nM
TGI [5]: 8420 nM
GI50 [6]: 4560 nM
TGI [6]: > 11800 nM
GI50 [7]: 1020 nM
TGI [7]: > 11800 nM
GI50 [8]: 623 nM
TGI [8]: > 11800 nM
GI50 [9]: 6840 nM
TGI [9]: > 11800 nM
GI50 [10]: 1080 nM
TGI [10]: > 11800 nM
GI50 [11]: 3130 nM
TGI [11]: > 11800 nM
GI50 [12]: 372 nM
TGI [12]: 2680 nM
GI50 [13]: 389 nM
TGI [13]: 4190 nM
GI50 [14]: 359 nM
TGI [14]: 1440 nM
GI50 [15]: 10800 nM
TGI [15]: > 11800 nM
GI50 [16]: 506 nM
TGI [16]: 4650 nM
GI50 [17]: 1230 nM
TGI [17]: 8090 nM
GI50 [18]: 745 nM
TGI [18]: 3880 nM
GI50 [19]: 3730 nM
TGI [19]: > 11800 nM
GI50 [20]: 330 nM
TGI [20]: 2390 nM
GI50 [21]: 596 nM
TGI [21]: > 11800 nM
GI50 [22]: 692 nM
TGI [22]: 3540 nM
GI50 [23]: 1590 nM
TGI [23]: 3450 nM
GI50 [24]: 1510 nM
TGI [24]: 3040 nM
GI50 [25]: 821 nM
TGI [25]: > 11800 nM
GI50 [26]: 3050 nM
TGI [26]: > 11800 nM
GI50 [27]: 800 nM
TGI [27]: 8910 nM
GI50 [28]: 943 nM
TGI [28]: 4920 nM
GI50 [29]: 317 nM
TGI [29]: 3270 nM
GI50 [30]: 2540 nM
TGI [30]: > 11800 nM
GI50 [31]: 2280 nM
TGI [31]: > 11800 nM
GI50 [32]: 2200 nM
TGI [32]: 9500 nM
GI50 [33]: 505 nM
TGI [33]: > 11800 nM
GI50 [59]: 2640 nM
TGI [59]: > 11800 nM
GI50 [34]: 681 nM
TGI [34]: > 11800 nM
GI50 [35]: 869 nM
TGI [35]: > 11800 nM
GI50 [36]: 1310 nM
TGI [36]: > 11800 nM
GI50 [37]: 801 nM
TGI [37]: > 11800 nM
GI50 [38]: 234 nM
TGI [38]: > 11800 nM
GI50 [39]: 406 nM
TGI [39]: 5620 nM
GI50 [41]: 2720 nM
TGI [41]: > 11800 nM
GI50 [42]: 2470 nM
TGI [42]: > 11800 nM
GI50 [43]: 1590 nM
TGI [43]: 3230 nM
GI50 [44]: 3160 nM
TGI [44]: > 11800 nM
GI50 [45]: 1430 nM
TGI [45]: 3620 nM
GI50 [46]: 1190 nM
TGI [46]: 2580 nM
GI50 [47]: > 11800 nM
TGI [47]: > 11800 nM
GI50 [48]: 2980 nM
TGI [48]: > 11800 nM
GI50 [49]: 7350 nM
TGI [49]: > 11800 nM
GI50 [50]: 11600 nM
TGI [50]: > 11800 nM
GI50 [51]: 408 nM
TGI [51]: 2470 nM
GI50 [52]: 533 nM
TGI [52]: > 11800 nM
GI50 [53]: 460 nM
TGI [53]: > 11800 nM
GI50 [54]: 11700 nM
TGI [54]: > 11800 nM
GI50 [55]: 1420 nM
TGI [55]: 8270 nM
GI50 [56]: 1190 nM
TGI [56]: 2820 nM
GI50 [57]: 1150 nM
TGI [57]: > 11800 nM
GI50 [58]: 1980 nM
TGI [58]: > 11800 nM
